The structures appear in SMILES notation.

Assay [1] has as its system CD22 expression on ALL and DLBCL cell lines (Nalm6, Kopn8, SEM, Pfeiffer, Toledo, PDX). The assay can be described thus: CD22 expression on leukemia/lymphoma cells by flow cytometry after drug exposure in vitro. The class given is cell-based, human. As for the experimental part:
(§1) FIGS. 3A-3D: (FIG. 3A) Four cell lines (Nalm6, Kopn8, Pfieffer and Toldeo) were co-incubated with 1 ng/ml Bryostatin 1 for 24 hours and analyzed using flow cytometry one day after Bryostatin 1 exposure. Site density was analyzed using standardized Quantibrite-PE beads. (FIG. 3B) Cell lines were co-incubated with 1 ng/ml Bryostatin 1 for 24 hours, washed, and analyzed using flow cytometry at 1 and 7 days after Bryostatin 1 exposure. Fold change was calculated based on site density: (Cell line Bryostatin 1—Cell line DMSO)/Cell line DMSO. (FIG. 3C) NSG mice were injected with 1×10^6 GPF-positive Nalm6 leukemia cells on Day 0. Bryostatin 1 was administered at 0.8 μg/kg on Day 3. Mice were sacrificed 7 and 12 days after Bryostatin 1 injection and CD22 was evaluated by flow cytometry. (FIG. 3D) CD22-low relapse PDX cell line was cultured in vitro with 1 nmol/L Bryostatin 1 for 24 hours and measured for CD22 expression using CD22 antibody.
FIGS. 10A-10E: (FIG. 10A) Three cell lines (Toldeo, Kopn8 and Nalm6) were co-incubated with Bryostatin 1 at varying concentrations for 24 hours. At 24 hours, cells were collected for protein kinase C (PKC)-βII isoform analysis by western blot. (FIG. 10B) KOPN8 or SEM cell lines were exposed to Bryostatin 1 for 16, 24, 48 or 72 hours. RNA was extracted from cells and analyzed using RNAseq. (FIG. 10C) Immunofluorescent staining of CD22 was conducted through permeabilization followed by staining of CD22. (FIG. 10D) Four cell lines were co-incubated with various combinations of Enzastaurin (10 μM), Staurosporine (100 μM), or Bryostatin 1 (1 nM) for 24 hours. CD22 expression was assessed using flow cytometry. MFI fold change=CD22 MFI^Bryostatin1/CD22 MFI^DMSO. (FIG. 10E) Cell lines were co-incubated with 1 nM Bryostatin 1 for 24 hours and measured for CD22 expression using CD22-PE antibody. MFI fold change=CD22 MFI^Bryostatin 1/CD22 MFI^DMSO.
FIG. 11: CD22^lo or parental Nalm6 cell lines were exposed to 1 ng/ml Bryostatin 1 for 24 hours. CD22 expression was assessed using flow cytometry.
For all in vitro experiments and tumor/CAR pretreatment prior to intravenous injection, Bryostatin 1 was administered to cells at a concentration of 1 ng/mL. Dimethyl sulfoxide (DMSO) vehicle control was administered to control-treated cells at an equal volume. Prior to co-culture or intravenous injection, Bryostatin 1- and DMSO-treated cells were washed 3x in sterile PBS. For all in vivo experiments, Bryostatin 1 was diluted in PBS and administered via intraperitoneal injection at a dose of 40 μg/kg (1 μg/25 g mouse). For control-treated groups, an equal volume of DMSO was diluted in PBS and administered in the same manner
FACS analysis of cell surface CAR and protein expression was performed using an LSR II Fortessa flow cytometer (BD Biosciences). CD22-CAR was detected by incubation with 22-Fc (R&D Systems), followed by incubation with human IgG-specific PE-F(ab)2 (Thermo Fisher Scientific). The following human monoclonal antibodies were used for detection of cell surface proteins: CD22-APC, CD22-PE, CD19-Pacific Blue, CD45-PerCP/Cy5.5, CD3-APC/Cy7, PD1-PE/Cy7, LAG3-APC, TIM3-Pacific Blue, CD8-APC, CD8-PE/Cy7, CD45RA-APC, CD45RO-PE/Cy7, CCR7-Pacific Blue, CD4-Pacific Blue, CD69-APC (all from BioLegend). CD22 site density was determined using QuantiBrite-PE beads (BD Biosciences) using methods previously described (Jasper et al., Cytometry B Clin Cytom 80(2):83-90, 2011). Dead cells were identified using eFluor 506 fixable viability dye (Thermo Fisher Scientific). GFP-expressing leukemia cells were identified through the FITC channel.
A general note: A flow cytometer gives signals particle by particle.

The test system of assay [2] is CD19 expression on ALL and DLBCL cell lines. The assay can be described thus: CD19 expression on cell lines by flow cytometry after Bryostatin 1 exposure. Type of assay: cell-based, human. The settings on record: 1 ng/ml, 24 hours. As for the experimental part: as §1, with “antibody. […]” for “antibody.”
FACS analysis of cell surface CAR and protein expression was performed using an LSR II Fortessa flow cytometer (BD Biosciences). CD22-CAR was detected by incubation with 22-Fc (R&D Systems), followed by incubation with human IgG-specific PE-F(ab)2 (Thermo Fisher Scientific). […] CD22 site density was determined using QuantiBrite-PE beads (BD Biosciences) using methods previously described (Jasper et al., Cytometry B Clin Cytom 80(2):83-90, 2011). […]

The next assay relates to KOPN8 and SEM cell lines. The assay is described as follows: RNA sequencing of Bryostatin 1-treated ALL cell lines. Type of assay: cell-based, human. As for the experimental part:
FIGS. 4A-4E: (FIGS. 4A-4B) KOPN8 or SEM cell lines were exposed to Bryostatin 1 for 16, 24, 48, or 72 hours. RNA was extracted from cells and analyzed using RNAseq. (FIGS. 4C-4E) Cell lines were co-incubated with 1 ng/ml of Bryostatin 1 for 24 hours. […] IL-2 (FIG. 4C), IFN-γ (FIG. 4D), and granzyme B (FIG. 4E) were measured by ELISA from cell culture supernatants. Statistical significance was calculated using an unpaired t-test (**** p<0.0001, *** p<0.0002, ** p<0.0021, * p<0.0332).
Sixteen RNA-seq samples were pooled and sequenced on one NextSeq high output run using Illumina TruSeq Poly A RNA Kit v3 with paired end sequencing. All samples had greater than 30 million pass filter reads with a base call quality above 95% of bases with Q30 and above. Reads of the samples were trimmed for adapters and low-quality bases using Trimmomatic software before alignment with the reference genome Human—hg19 and the annotated transcripts using STAR. The mapping quality statistics were calculated using Picard software and library complexity was measured in terms of unique fragments in the mapped reads using Picard's MarkDuplicate utility. The Partek Flow informatics pipeline was used to generate fold change and differentially expressed gene data as well as for data visualization. Gene set enrichment analysis (GSEA) of the differentially expressed genes was performed as previously described and using standard parameters.

The test system of assay [3] is ALL and DLBCL tumor cells (Nalm6 site density lines and others). The assay can be described thus: In vitro cytokine / granzyme B production assay (ELISA), CAR T cells co-cultured with tumor cells. Type of assay: cell-based, human. (In general: An ELISA detects its analyte on a solid surface through an enzyme-linked reagent.)
Description: For cytokine production assays, CAR or mock T cells were washed to remove IL-2 and re-suspended in RPMI medium. 1×10^5 effector cells were then co-cultured with tumor cells in RPMI at a 1:1 effector to target ratio in 96-well plates and incubated at 37° C. for 20 hours. The plates were spun at 1200 RPM for 6 minutes to pellet the cells, and cytokine concentrations in the culture supernatants were measured using IL-2 ELISA (R&D systems), IFNγ ELISA (R&D systems), or granzyme B ELISA (Thermo Fisher Scientific) kits according to the manufacturer's directions.
Assay [4] relates to Nalm6, Nalm6 CRISPR variant, SEM or PDX leukemia. The assay can be described thus: Nalm6 / SEM xenograft and PDX in vivo studies (IVIS luminescence). Details: species or system NSG mice.
Where [5] appears, read: CAR T cells pre-treated 1 ng/ml 24 hours, co-culture with ALL or DLBCL cell lines.

`CCC/C=C/C=C/C(=O)O[C@H]1/C(=C/C(=O)OC)C[C@H]2C[C@H]([C@@H](C)O)OC(=O)C[C@H](O)C[C@@H]3C[C@H](OC(C)=O)C(C)(C)[C@](O)(C[C@@H]4C/C(=C/C(=O)OC)C[C@H](/C=C/C(C)(C)[C@]1(O)O2)O4)O3` [Bryostatin 1]: the “persistence of increased CD22 expression following removal of drug” value in assay [1] (24 hours exposure, washed, analyzed at 1 and 7 days) is “persisted for a week”. Moreover, in assay [1] (CD22^lo Nalm6, 1 ng/ml, 24 hours), the “CD22 expression on CD22^lo leukemia cells following exposure” value is “did not demonstrate an increase”. Further, the “CD22 expression (MFI fold change)” value in assay [1] (KOPN8 and SEM, 1 nM, 24 hours) is on record as “robust upregulation”. In addition, the “CD22 on CD22-low relapse patient-derived ALL xenograft” value in assay [1] (PDX cell line cultured in vitro, 1 nmol/L, 24 hours) was “upregulated”. Further, the “CD22 expression upon exposure” value in assay [1] (all four cell lines (two pre-B ALL, two DLBCL), 1 ng/ml, 24 hours) was “significant increase”. Besides, in assay [2], the “CD19 expression on ALL” value is “did not alter” and the “CD19 expression on DLBCL” value is “modest increase”. In the assay on KOPN8 and SEM cell lines (KOPN8), the “genes with 2-fold increased expression versus control” value is listed as 756 genes. Moreover, the “genes with a greater than 2-fold change” value in the assay on KOPN8 and SEM cell lines (KOPN8, 24 hours) turned out to be 1524 genes. In the assay on KOPN8 and SEM cell lines (KOPN8 and SEM, 16, 24, 48, 72 hours), the “CD22 mRNA over the course of treatment” value was “Neither cell line showed changes”. The “genes with a 2-fold change” value in the assay on KOPN8 and SEM cell lines (SEM) is on record as “only one gene”. In assay [3] (setting [5]), the “IFN-γ produced by pre-treated CD22 CAR relative to DMSO-control” value was “attenuated levels” and the “granzyme B produced by pre-treated CD22 CAR relative to DMSO-control” value is recorded as “significantly increased levels”. For the same molecule, the “Granzyme B production by the CD19 CAR” value in assay [3] (SEM cells exposed to 1 nM for 24 hours) was “did not show improved Granzyme B production”. Besides, the “production of IL-2, IFN-γ, and granzyme B by the CD22 CAR” value in assay [3] (pre-treatment of B-ALL and DLBCL target cells, 1 ng/ml 24 hours) is “significantly enhanced”. Moreover, the “durability of remission after subcurative dose of CD22 CART” value in assay [4] (Nalm6 and SEM, 40 μg/kg once weekly for 2 weeks) was “improved durability of remission”. Further, in assay [4] (SEM, 40 μg/kg once weekly for 2 weeks), the “efficacy of the CD19 CAR in vivo” value is recorded as “did not reduce efficacy”. Besides, the “ability of CD22-CAR to attenuate progression of CD22^lo leukemia in vivo” value in assay [4] (once weekly for 2 weeks after CD22 CART) is recorded as “did not impact”.

The values above are taken from patent US11939377B2, “Affinity matured CD22-specific monoclonal antibody and uses thereof” (The U.S.A., as represented by the Secretary, Department of …, priority 2018, dated 2024).
